Data from ChEMBL document CHEMBL1201862, “PubChem BioAssay data set” (2004).
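Method: 48-hour compound exposure of cells in 96-well plates, five concentrations, linear interpolation of endpoints. GI50 is the concentration that inhibits growth by half.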 Activity calls are given as the source filed them. No stated cut-off is given here; in the data, active = GI50 up to about 1.1 µM and inactive = higher.

Tests used:
Experiment in all cases: NCI-60 cell line screen, 48 h
SK-MEL-28 = system: SK-MEL-28
SK-MEL-5 = system: SK-MEL-5
NCI-H226 = system: NCI-H226
LOX IMVI = system: LOX IMVI
HCT-116 = system: HCT-116
SF-539 = system: SF-539
T47D = system: T47D
NCI-H522 = system: NCI-H522
OVCAR-5 = system: OVCAR-5
U-251 = system: U-251
K562 = system: K562
RPMI-8226 = system: RPMI-8226
UACC-257 = system: UACC-257
EKVX = system: EKVX
Hs-578T = system: Hs-578T
CAKI-1 = system: CAKI-1
UACC-62 = system: UACC-62
A549 = system: A549
SK-OV-3 = system: SK-OV-3
A498 = system: A498

Compound	GI50 (SK-MEL-28)	GI50 (SK-MEL-5)	GI50 (NCI-H226)	GI50 (LOX IMVI)	GI50 (HCT-116)	GI50 (SF-539)	GI50 (T47D)	GI50 (NCI-H522)	GI50 (OVCAR-5)	GI50 (U-251)	GI50 (K562)	GI50 (RPMI-8226)	GI50 (UACC-257)	GI50 (EKVX)	GI50 (Hs-578T)	GI50 (CAKI-1)	GI50 (UACC-62)	GI50 (A549)	GI50 (SK-OV-3)	GI50 (A498)
O=C1CCC(Cc2ccc(Cl)cc2Cl)C(=O)N1 (stereo unspecified)	> 100 µM (inactive)	> 100 µM (inactive)	> 100 µM (inactive)	> 100 µM (inactive)	> 100 µM (inactive)	> 100 µM (inactive)	80.4 µM (inactive)	66.7 µM (inactive)	> 100 µM (inactive)	> 100 µM (inactive)	> 100 µM (inactive)	79.4 µM (inactive)	> 100 µM (inactive)	65 µM (inactive)	81.5 µM (inactive)	> 100 µM (inactive)	> 100 µM (inactive)	> 100 µM (inactive)	> 100 µM (inactive)	
Cc1sc(NC=C2C(=O)CC(C)(C)CC2=O)nc1-c1ccccc1	> 100 µM (inactive)	> 100 µM (inactive)	> 100 µM (inactive)	> 100 µM (inactive)	> 100 µM (inactive)	> 100 µM (inactive)	> 100 µM (inactive)	80.5 µM (inactive)	> 100 µM (inactive)	> 100 µM (inactive)	> 100 µM (inactive)	> 100 µM (inactive)	> 100 µM (inactive)	> 100 µM (inactive)	> 100 µM (inactive)	> 100 µM (inactive)	> 100 µM (inactive)	> 100 µM (inactive)	> 100 µM (inactive)	
CNC(=S)/C(=N\Nc1[nH]cnc1C(N)=O)C(N)=S	69.7 µM (inactive)	11.5 µM (inactive)	5.73 µM (inactive)	0.598 µM (active)	3.52 µM (inactive)	5.21 µM (inactive)	11.6 µM (inactive)	10.9 µM (inactive)	> 31.6 µM (inactive)	30.3 µM (inactive)	0.444 µM (active)	1.14 µM (inactive)	9.62 µM (inactive)	22.3 µM (inactive)	9.14 µM (inactive)	1.71 µM (inactive)	3.22 µM (inactive)	> 84.1 µM (inactive)	1.51 µM (inactive)	
COC(=O)c1ccc(C)cc1CC1Cc2cccc(C)c2C1=O (stereo unspecified)	7.41 µM (inactive)	3.59 µM (inactive)	3.83 µM (inactive)	2.88 µM (inactive)	3.68 µM (inactive)	4.02 µM (inactive)	5.85 µM (inactive)	2.37 µM (inactive)	14 µM (inactive)	3.87 µM (inactive)	2.77 µM (inactive)		11.7 µM (inactive)	2.94 µM (inactive)	9.77 µM (inactive)	10.6 µM (inactive)	9.57 µM (inactive)	6.58 µM (inactive)	8.05 µM (inactive)	
C[C@@H](c1ccccc1)n1c(N)c(C#N)c2ccc([N+](=O)[O-])cc2c1=O	15 µM (inactive)	16.7 µM (inactive)	1.68 µM (inactive)	14.2 µM (inactive)	14.4 µM (inactive)		15.7 µM (inactive)			18.7 µM (inactive)	12.8 µM (inactive)		18.7 µM (inactive)		18.2 µM (inactive)	15.1 µM (inactive)	13.2 µM (inactive)	> 100 µM (inactive)		6.27 µM (inactive)
CO[C@]12CC(=O)C3(C(C[C@H]4CC5CC[C@H]6C[C@@H](OC(C)=O)CC[C@]6(OC(C)=O)C5C[C@@]43C)C1)C1C[C@H]3[C@@H]4CC[C@H]5C[C@@H](OC(C)=O)CC[C@]5(OC(C)=O)[C@H]4CC[C@]3(C)C12 (stereo partly specified)	> 100 µM (inactive)	24.4 µM (inactive)		89.7 µM (inactive)	42.5 µM (inactive)	> 100 µM (inactive)	37 µM (inactive)		> 100 µM (inactive)	75.5 µM (inactive)	54.6 µM (inactive)	37.2 µM (inactive)	> 100 µM (inactive)	> 100 µM (inactive)	71.4 µM (inactive)	> 100 µM (inactive)	84.3 µM (inactive)	61.2 µM (inactive)	> 100 µM (inactive)	> 100 µM (inactive)
CC1=C(C(N)=O)C(c2ccncc2)C(C#N)C(=O)N1 (stereo unspecified)	> 100 µM (inactive)	> 100 µM (inactive)		> 100 µM (inactive)	> 100 µM (inactive)	> 100 µM (inactive)	> 100 µM (inactive)			> 100 µM (inactive)	> 100 µM (inactive)	> 100 µM (inactive)	> 100 µM (inactive)	> 100 µM (inactive)	> 100 µM (inactive)	> 100 µM (inactive)	> 100 µM (inactive)		> 100 µM (inactive)	> 100 µM (inactive)
COc1ccccc1C(O)[C@@H]1C[C@@H]2[C@H]3CC[C@@](C)([C@@H]2O1)C3(C)C (stereo partly specified)	17.1 µM (inactive)	17.3 µM (inactive)		18.4 µM (inactive)	20.5 µM (inactive)	6.53 µM (inactive)	16.4 µM (inactive)	17.4 µM (inactive)	19.5 µM (inactive)	16.5 µM (inactive)	21.3 µM (inactive)	25.2 µM (inactive)	20.3 µM (inactive)	45.2 µM (inactive)	14.7 µM (inactive)	23.8 µM (inactive)	16.6 µM (inactive)	21.2 µM (inactive)	27.4 µM (inactive)	15.4 µM (inactive)
CCCCCCCC(CC(=O)NC(CO)C(=O)NC(CO)CC(C)C)OC(=O)CC(CCCCCCC)OC(=O)CC(CCCCCCC)OC1OC(C)C(O)C(OC2OC(C)C(O)C(O)C2OC(C)=O)C1O (stereo unspecified)	9.64 µM (inactive)	10.1 µM (inactive)	20.5 µM (inactive)		3.94 µM (inactive)	11.1 µM (inactive)	6.52 µM (inactive)	12.6 µM (inactive)	10.3 µM (inactive)	7.03 µM (inactive)	4.13 µM (inactive)		2.99 µM (inactive)	14.3 µM (inactive)	4.51 µM (inactive)	14.7 µM (inactive)	5.9 µM (inactive)	12.3 µM (inactive)	16.6 µM (inactive)	15.8 µM (inactive)
COc1ccc2c(c1)nc1n2C(c2c(F)cccc2Cl)SC1 (stereo unspecified)	5 µM (inactive)	3.17 µM (inactive)	4.75 µM (inactive)	6.64 µM (inactive)	4.14 µM (inactive)	3.25 µM (inactive)	3.32 µM (inactive)		> 37.2 µM (inactive)	5.08 µM (inactive)	> 100 µM (inactive)		18.2 µM (inactive)	26.1 µM (inactive)	1.69 µM (inactive)	19.1 µM (inactive)	7.26 µM (inactive)	4.81 µM (inactive)		5.89 µM (inactive)
CN1C(=O)C(/C=N/NC(=O)c2cccnc2)C(N)N(C)C1=O (stereo unspecified)	> 100 µM (inactive)	> 100 µM (inactive)	> 100 µM (inactive)		> 100 µM (inactive)		> 100 µM (inactive)	> 100 µM (inactive)	> 100 µM (inactive)	> 100 µM (inactive)	> 100 µM (inactive)	> 100 µM (inactive)	> 100 µM (inactive)	> 100 µM (inactive)	> 100 µM (inactive)	> 100 µM (inactive)	> 100 µM (inactive)	> 100 µM (inactive)	> 100 µM (inactive)	
Cc1ccc(-c2nnc(CCCCCCCCc3nnc(-c4ccc(C)cc4O)n3N)n2N)c(O)c1	> 100 µM (inactive)			> 100 µM (inactive)	> 100 µM (inactive)	> 100 µM (inactive)	56.5 µM (inactive)	> 100 µM (inactive)	> 100 µM (inactive)	> 100 µM (inactive)		> 100 µM (inactive)	> 100 µM (inactive)	> 100 µM (inactive)	44.9 µM (inactive)	> 100 µM (inactive)	> 100 µM (inactive)	> 100 µM (inactive)	39.2 µM (inactive)	> 100 µM (inactive)
Cc1ccc(NC(=S)NNC(=O)c2cc(-c3ccccc3)nc3ccccc23)cc1	5.96 µM (inactive)	10.4 µM (inactive)	18.7 µM (inactive)		8.59 µM (inactive)	15.7 µM (inactive)	3.21 µM (inactive)	14.7 µM (inactive)	15.4 µM (inactive)	5.68 µM (inactive)	13.4 µM (inactive)	4.59 µM (inactive)	14.4 µM (inactive)		17.4 µM (inactive)	18 µM (inactive)	12.5 µM (inactive)	11.9 µM (inactive)	16.5 µM (inactive)	
CCOC(=O)NC(Nc1ccc(S(=O)(=O)Nc2ncccn2)cc1)(C(=O)OCC)C(F)(F)F (stereo unspecified)	> 100 µM (inactive)	> 100 µM (inactive)	> 100 µM (inactive)	> 100 µM (inactive)	> 100 µM (inactive)	> 100 µM (inactive)	> 100 µM (inactive)	> 100 µM (inactive)	> 100 µM (inactive)	> 100 µM (inactive)	> 100 µM (inactive)	> 100 µM (inactive)	> 100 µM (inactive)	> 100 µM (inactive)	> 100 µM (inactive)	> 100 µM (inactive)	> 100 µM (inactive)	> 100 µM (inactive)	> 100 µM (inactive)	
CCOC(=O)C1=C(C)NC(=O)NC1c1ccc(N(CCCl)CCCl)cc1Cl (stereo unspecified)	17.6 µM (inactive)	14.7 µM (inactive)	15.2 µM (inactive)	15.9 µM (inactive)	14.3 µM (inactive)	17.2 µM (inactive)	5.77 µM (inactive)	13.6 µM (inactive)	17.9 µM (inactive)	16.6 µM (inactive)	12 µM (inactive)		16 µM (inactive)	22.5 µM (inactive)	17.1 µM (inactive)	17.2 µM (inactive)	10.6 µM (inactive)	13.7 µM (inactive)	17.3 µM (inactive)	15.9 µM (inactive)
